Measurements: paper PMC5566576, “Identification and Functional Characterization of Small Alarmone Synthetases in Corynebacterium glutamicum” (Frontiers in Microbiology, 2017)

What was measured:
RelP*Cg [1] = biological target: T1, RelP*Cg (Corynebacterium glutamicum, UniProt Q8NR76); test: kinase activity, HPLC-MS product detection (ADP and GTP); type: biochemical; details: 4 mM ATP, 4 mM GDP, 50 mM Tris-HCl pH 8.0, 5 mM MgCl2, 30°C, 4 h; no pyrophosphokinase activity
T1 construct: gene Cgl1177

RelCg [2] = biological target: T2, RelCg (Corynebacterium glutamicum, UniProt O87331); test: pyrophosphokinase assay, HPLC-MS product detection (ppGpp); type: biochemical; details: 4 mM ATP, 4 mM GDP, 50 mM Tris-HCl pH 8.0, 5 mM MgCl2, 30°C, 4 h; GDP also phosphorylated to GTP
T2 construct: gene relA
T2 sequence (O87331 1-760): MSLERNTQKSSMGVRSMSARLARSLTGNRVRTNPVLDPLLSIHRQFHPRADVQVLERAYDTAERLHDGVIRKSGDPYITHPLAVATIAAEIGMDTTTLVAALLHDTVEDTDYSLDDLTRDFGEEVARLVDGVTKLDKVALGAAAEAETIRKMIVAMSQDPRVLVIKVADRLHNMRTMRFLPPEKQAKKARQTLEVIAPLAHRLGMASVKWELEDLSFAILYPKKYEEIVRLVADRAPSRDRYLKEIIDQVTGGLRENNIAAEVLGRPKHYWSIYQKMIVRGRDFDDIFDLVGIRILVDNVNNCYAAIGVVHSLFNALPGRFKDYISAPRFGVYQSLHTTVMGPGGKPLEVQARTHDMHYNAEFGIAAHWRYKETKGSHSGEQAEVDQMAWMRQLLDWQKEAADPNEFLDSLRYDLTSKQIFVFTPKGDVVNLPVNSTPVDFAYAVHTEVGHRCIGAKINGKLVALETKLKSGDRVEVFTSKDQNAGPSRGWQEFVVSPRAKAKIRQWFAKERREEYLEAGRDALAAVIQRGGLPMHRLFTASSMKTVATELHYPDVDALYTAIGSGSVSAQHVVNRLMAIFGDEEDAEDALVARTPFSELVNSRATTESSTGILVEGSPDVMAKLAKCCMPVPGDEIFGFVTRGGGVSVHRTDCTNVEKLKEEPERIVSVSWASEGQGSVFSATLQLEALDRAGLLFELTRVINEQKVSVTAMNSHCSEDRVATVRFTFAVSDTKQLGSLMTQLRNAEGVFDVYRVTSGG

RelP*Cg [3] = biological target: T1, RelP*Cg; test: phosphohydrolase activity, HPLC-MS product detection (ADP and GDP); type: biochemical; details: 4 mM ATP, 4 mM GTP, 50 mM Tris-HCl pH 8.0, 5 mM MgCl2, 30°C, 4 h; no alarmone formed
RelCg [4] = biological target: T2, RelCg; test: pyrophosphokinase assay, HPLC-MS product detection (pppGpp); type: biochemical; details: 4 mM ATP, 4 mM GTP, 50 mM Tris-HCl pH 8.0, 5 mM MgCl2, 30°C, 4 h
[5] = substrate: Nc1nc2c(ncn2[C@@H]2O[C@H](COP(=O)(O)OP(=O)(O)O)[C@@H](O)[C@H]2O)c(=O)[nH]1; test: pyrophosphokinase assay, HPLC-MS quantification of AMP, polynomial fit; type: biochemical, Corynebacterium glutamicum; details: 25 mM ATP, 50 mM HEPES-Na pH 7.0, 200 mM NaCl, 5 mM MgCl2, 30°C, 60 min, 250 nM enzyme, substrate excess inhibition at 25-50 mM
[6] = substrate: Nc1nc2c(ncn2[C@@H]2O[C@H](COP(=O)(O)OP(=O)(O)OP(=O)(O)O)[C@@H](O)[C@H]2O)c(=O)[nH]1; test: as above; type: biochemical, Corynebacterium glutamicum; details: 25 mM ATP, 50 mM HEPES-Na pH 7.0, 200 mM NaCl, 5 mM MgCl2, 30°C, 60 min, 250 nM enzyme, substrate excess inhibition at 25-50 mM
[7] = substrate: Nc1ncnc2c1ncn2[C@@H]1O[C@H](COP(=O)(O)OP(=O)(O)OP(=O)(O)O)[C@@H](O)[C@H]1O; test: pyrophosphokinase assay, HPLC-MS quantification of AMP; half-maximal specific activity; type: biochemical, Corynebacterium glutamicum; details: 25 mM GTP, 50 mM HEPES-Na pH 7.0, 200 mM NaCl, 5 mM MgCl2, 30°C, 60 min, 250 nM enzyme

T1 sequence (Q8NR76 entry or part of it): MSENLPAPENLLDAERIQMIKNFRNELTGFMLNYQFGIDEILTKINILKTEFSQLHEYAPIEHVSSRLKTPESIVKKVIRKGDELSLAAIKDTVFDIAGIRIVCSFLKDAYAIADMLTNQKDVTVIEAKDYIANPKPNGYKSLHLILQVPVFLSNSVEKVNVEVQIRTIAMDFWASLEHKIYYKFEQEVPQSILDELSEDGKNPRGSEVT

## Nc1nc2c(ncn2[C@@H]2O[C@H](COP(=O)(O)OP(=O)(O)O)[C@@H](O)[C@H]2O)c(=O)[nH]1 [GDP]
RelP*Cg [1]
  kinase activity, HPLC-MS product detection (ADP and GTP): RelP^*Cg possesses a kinase activity, since ADP and GTP were produced
RelCg [2]
  pyrophosphokinase assay, HPLC-MS product detection (ppGpp): pyrophosphorylation of GDP and GTP to ppGpp and pppGpp was detected

## Nc1nc2c(ncn2[C@@H]2O[C@H](COP(=O)(O)OP(=O)(O)OP(=O)(O)O)[C@@H](O)[C@H]2O)c(=O)[nH]1 [GTP]
RelP*Cg [3]
  phosphohydrolase activity, HPLC-MS product detection (ADP and GDP): containing RelP^*Cg as well as ATP and GTP as substrates, significant amounts of ADP and GDP
RelCg [4]
  pyrophosphokinase assay, HPLC-MS product detection (pppGpp): pyrophosphorylation of GDP and GTP to ppGpp and pppGpp was detected

B1: RelSCg (Corynebacterium glutamicum ATCC 13032) (protein)
chain: MSDNTLSQFGSYYHEFRRAHPMADVEFLLAIEELLTDGGVTFDRVTTRIKEWSSLKAKARKRRNDGSLIYPDPRKDIHDMIGVRITTYHSTEIPVALKVLQDSFIVHKSVDKAAETRISGGFGYGSHHLILEVDDTSDDLQDYKGLVFEVQVRTVLQHAWAEFEHDIRYKRADVSNPEDFSAEVDRMFTLAAGLIELADQQFDQIAALKETSRVADESVELTAETLPGVLAMLIGNRFPRPRSTNYRFLEDILVANSITSVVQLRELLNPTDIEVLLKVMNYRFHPGQIRIIDDLLLKRFGQSHIDATVATDSQPLNAKRHRQLKRKLELMTQAHLVEPPN
[5]
  Km: 6.1 mM
[6]
  Km: 4.1 mM
[7]
  K0.5: 0.8 mM
